Experimental data reported in patent publication US8785472B2, “Use of dextromethorphan in treating addictive behavior or bipolar disorder” (National Cheng Kung University, priority 2010, dated 2014).
“Also recorded” adds a separate entry of the source.

What was measured:
LPS and MPTP PD models = conditions: cited from earlier work
[1] = system: methadone-maintained male inpatients; conditions: DM at high doses (120, 240, 480 mg/day in increasing order); cited from earlier work
[2] = system: rat primary mixed mesencephalic neuron-glia cultures; conditions: cited from earlier work
[3] = system: subjects with bipolar I or II disorder; assay: Double-blind DM add-on to valproate, 12 weeks: YMRS, HDRS, CGI; format: in vivo, human; conditions: for YMRS score: DM 60 mg/day add-on to VPA
Text: Totally 292 male and female subjects with bipolar I or II disorder, from the Department of Psychiatry at National Cheng Kung University Hospital and National Defense Medical Center were recruited. […] The Institutional Review Board for the Protection of Human Subjects approved the study protocol by both medical centers.
The add-on double-blind study treatment with DM/place was commenced at randomization for 12 weeks while patients continue open-label VPA. Subjects were randomized to either with 60 mg per day of DM or placebo at Baseline and proceeded to double-blind Add-On Treatment. The treatment response and side effect were measured to clarify the curative effect of DM add-on therapy to VPA in the treatment of bipolar disorders. […] Concomitant benzodiazepine medication (preferably up to 8 mg lorazepam) was used for daytime sedation, agitation or insomnia during the study. Risperidone 1-6 mg/daily and fluoxetine 20 mg/daily were permitted during manic or depressive stage, and anticholinergic drug was also used for the extrapyramidal syndrome (EPS).
The Chinese version of the modified SADS-L, a semi-structured interview aimed at formulating the main diagnoses based upon DSM-IV criteria with good inter-rater reliability. This modified version of SADS-L with its diagnoses was used as the gold standard. The severity of current symptoms was assessed by using the YMRS and HDRS. The diagnoses of a mood disorder were made according to DSM-IV criteria, except for bipolar II disorder, where the duration criterion for hypomania of 4 days was left out but 2-day cutoff for hypomania was used instead, because the 4 days minimum duration might not be based on data and the newly adopted cutoff had been supported by several previous reports. The side effect was measured using Clinical Global Impression (CGI) at each visit point.
(§1) All of the above, vital sign, and immunological markers were measured at baseline, 1, 2, 4, 8 and 12 weeks. For the 30 subjects of health control were also recruited for comparing the immune markers. The degree of benefit on symptoms after the week 4, 8 and end of treatment due to add-on DM treatment to VPA in comparison with placebo using a main measure of total psychopathology. The safety and tolerability and measure and assess the changes of immunology, and clinical features between the group with add-on DM treatment with placebo from Baseline to the end of study were compared.
For each scale, data were analyzed using last observation carried forward (LOCF) method, in which the last observation was entered for missing visits. To assess the efficacy in various clinical domains and take into account patient effects, mixed-effects models (Lange & Ryan 1989) were used (with intercept as the random effects) for all normally distributed outcomes, with main effects for treatment (DM or placebo), time (0, 1, 2, 4, 8, 12 weeks), and the treatment×time interaction. The analysis of the response rate was intent to treat. All hypothesis tests were 2-sided and were conducted at α=0.05. The post hoc of independent t test was then used to examine which time point the effect of add-on treatment started. P<0.05 was considered statistically significant for all two-sided tests. Statistical analyses were carried out using SPSS for windows (version 15.0).

[4] = system: plasma TNF-alpha, CRP, IL-1beta, IL-6, IL-8, BDNF; assay: Plasma immunological markers (ELISA) in the DM add-on methadone trial; format: in vivo, human; conditions: for plasma TNF-alpha concentration: FIG. 3
Experimental: • Human Cytokine Array I (Ray Biotech Inc., Norcross, Ga.) consisted of 23 different cytokine and chemokine antibodies spotted in duplicate onto a membrane (Dvorakova et al. 2004). The membranes were blocked with 10% bovine serum albumin in Tris-buffered saline according to the instructions of the manufacturer. One and a half milliliters of conditioned medium was added to each membrane in separate wells of a six-well plate. The membranes were shaken at 110 rpm at room temperature for an hour and a half. All washes were done in new six-well plates, according to the instructions of the manufacturer. Two milliliters of a 1:500 dilution of biotinconjugated antibodies was added to each membrane, and the mixture was incubated on a shaker for an hour and a half at room temperature. Following the wash, the membranes were incubated with a 1:40,000 dilution of strepavidin-conjugated peroxidase for 1 hour at room temperature, according to the instructions of the manufacturer. Following a thorough wash, the membranes were exposed to a peroxidase substrate (ChemGlow West; Alphalnnotech Corp., San Leandro, Calif.) for 5 min in the dark before imaging. Two or six individual membranes were placed side-by-side in a plastic protective folder and sealed. Imaging was done with a UVP AutoChemi imaging system within 30 min of exposure to the substrate. Exposure times ranged from 1 to 10 min. Chemiluminescence was quantified with LabWorks imaging and analysis software. Horseradish peroxidase (HRP)-conjugated antibody served as a positive substrate control at six spots and was also used to identify membrane orientation. For each spot the net density gray level was determined by subtracting the background gray levels from the total raw density gray levels. The relative fold difference in cytokine amount was determined in reference to the amount present on the control culture membrane based on the following: average treated culture cytokine spot gray levels/average control culture cytokine spot gray levels. 2. ELISA • Cytokine was quantified by using the Flexia antibody pair system (Bio-Source Intl., Camarillo, Calif.). Basically, the enzyme-linked immunosorbent assays (ELISAs) were optimized by using 96-well plates (MaxiSorp; Nalge Nunc International Corp., Naperville, Ill.) coated with 100 μl of strepavidin (Sigma, St. Louis, Mo.) at 5 μg/ml in water overnight at 37° C. or until all water was evaporated. All plates were stored desiccated at 4° C. until use. Biotinylated F(ab)2 coating antibody (5 μg/ml) was added to each well, and the plate was incubated at 37° C. for 2 hours. All wells were blocked and washed according to the instructions of the manufacturer. Standards or samples (100 μl) were added to the wells, and the plates were incubated at 37° C. for 1 hour. HRP-conjugated antibody (10 μg/ml) was added for an additional hour at 37° C. The plates were then washed thoroughly according to the instructions of the manufacturer. One hundred microliters of tetramethlybenzidine substrate (Roche, Indianapolis, Ind.) was added to each well, and the plates were held for 30 min in the dark. The reaction was stopped by the addition of 100 μl of 2 NH2SO4 to each well. The absorbance was read on an automated plate reader (Tecan U.S. Inc.) at 450 nm (reference wavelength, 650 nm). Values (in picograms per milliliter) were calculated from a standard curve. Samples were diluted up to 1:20, depending on the concentration.
The immunological parameters, C-reactive protein, TNF-α and interleukins was measured in the blood samples taken at Screen, week 1, week 4, week 8 and at the end of the study.

[5] = system: plasma TNF-α, IL-1β, IL-8, CRP, BDNF; assay: Plasma cytokine level (ELISA) in the DM add-on valproate trial; format: in vivo, human
Experimental: Blood routine, SGOT, SGPT, BUN and creatinine were measured only while the samples were taken at screen and at the end of the study. Plasma cytokine was quantified using the enzyme-linked immunosorbent assays (ELISAs). The Quantikine Human cytokine kit (R&D system), and Molecular Devices (SpectraMax-M2) ELISA reader were used to analyze the plasma cytokine level. The immunological parameters, BDNF, TNF-α, and interleukins were measured in the blood samples. The low limit sensitivity was 0.5 pg/ml, 0.125 pg/ml and 62.5 pg/ml for TNF-α, IL-1β and BDNF respectively. Finally, we used HPLC with UV detector to measure the plasma DM level.
as §1

[6] = system: subjects with opioid dependence; assay: Double-blind DM add-on to methadone maintenance therapy, 12 weeks: methadone dose and urine opioid
[7] = BP subjects, after 12 weeks depakine add-on dextromethorphan vs pretest, FIG. 11
[8] = normal controls vs BP subjects, before and after treatment (data not shown)

COc1ccc2c(c1)[C@]13CCCC[C@@H]1[C@H](C2)N(C)CC3 [DM, Dextromethorphan]
protective effect in animal PD models (LPS and MPTP PD models): potent protective effect
effects on heart rate, blood pressure, temperature and plasma bromide [1]: mild elevations
neuroprotection with post-treatment ([2]; DM added up to 60 minutes after the addition of LPS): Significant neuroprotection
number of dopamine neurons and dendrite morphology ([2]; pretreated with DM (10 μM) before LPS stimulation): significantly more numerous and the dendrites less affected
concentration protecting dopamine neurons against LPS-induced reduction of dopamine uptake ([2]; rat primary mixed mesencephalic neuron-glia cultures): 1 to 10 µM
HDRS score, DM vs placebo ([3]; BP I): no differences
YMRS score, DM vs placebo ([3]; BP I): no differences
YMRS score ([3]; BP I, Baseline): 8.08 ± 5.35
YMRS score ([3]; BP I, Week 1): 8.08 ± 5.35
YMRS score ([3]; BP I, Week 2): 7.31 ± 5.00
YMRS score ([3]; BP I, Week 4): 5.86 ± 3.01
YMRS score ([3]; BP I, Week 8): 6.16 ± 3.61
YMRS score ([3]; BP I, Week 12): 5.80 ± 4.04
CGI-therapeutic effect score, DM vs placebo ([3]; BP I, p=0.07, FIG. 10): borderline significance; also recorded: Borderline improvement
effectiveness in hypomania stage ([3]; BP II patients, dextromethorphan add-on depakine, after 8 weeks of treatment): more effective
YMRS score ([3]; BP II, Baseline): 5.77 ± 3.25
YMRS score ([3]; BP II, Week 1): 5.60 ± 2.99
YMRS score ([3]; BP II, Week 2): 5.88 ± 3.13
YMRS score ([3]; BP II, Week 4): 5.60 ± 2.90
YMRS score ([3]; BP II, Week 8 (p = 0.01 vs placebo)): 4.40 ± 2.26
YMRS score ([3]; BP II, Week 12 (p = 0.008 vs placebo)): 4.26 ± 1.97
YMRS score, DM vs placebo over time ([3]; BP II, F=5.68, p=0.02, FIG. 9): significant difference of YMRS score
plasma IL-6 concentration ([4]; between groups throughout 12-week treatment, FIG. 6): no significant differences
plasma IL-8 concentration ([4]; between groups throughout 12-week treatment, FIG. 7): no significant differences
plasma BDNF concentration ([4]; between groups throughout 12-week treatment, FIG. 8): no significant differences
plasma TNF-alpha concentration ([4]; both high and low plasma DM groups vs placebo): Significantly lower plasma TNF-alpha concentration
plasma IL-1beta concentration ([4]; both high and low plasma DM level groups vs placebo, FIG. 5): lower plasma IL-1beta concentration
plasma TNF-alpha concentration ([4]; low plasma DM group compared with high plasma DM group): tendency of more decrease of plasma TNF-alpha concentration
plasma CRP concentration ([4]; only in low plasma DM group, FIG. 4): lower plasma CRP concentration
plasma IL-1β ([5]; BP patients, after the add-on DM treatment): decrease
plasma IL-8 level [5, 7]: significant decreasing
plasma TNF-α level [5, 7]: significant decreasing
plasma BDNF [5, 8]: no difference
plasma CRP [5, 8]: no difference
percentage morphine-positive urine ([6]; both high (>30 ng/ml) and low (<=30 ng/ml) plasma DM level groups vs placebo, FIG. 2): lower percentage morphine-positive urine
methadone dosage change ([6]; low plasma DM level group (<=30 ng/ml) vs high plasma DM group and placebo, 12 weeks add-on to methadone, FIG. 1): highest tendency of decrease of methadone use
